# Reference: US10405547B2, “Substituted cyclic amides as herbicides” (FMC Corporation, priority 2015, dated 2019)
# What was measured:
# Type in all cases: in vivo
# [1] = test system: blackgrass (Alopecurus myosuroides); test: Test A postemergence, blackgrass; conditions: visual injury, 0 to 100 scale (0 no effect, 100 complete control), approximately 10 days
# In short: (§1)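 Greenhouse pot test in loam/sand soil. Pre: directed soil spray after seeding. Post: 1–2-leaf plants, 2–10 cm. Formulation: non-phytotoxic solvent + surfactant. Visual rating vs untreated controls at ~10 d, 0 (no effect) to 100 (complete control).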
# [2] = test system: barnyardgrass (Echinochloa crus-galli); test: Test A preemergence, barnyardgrass; conditions: 0 to 100 scale (0 no effect, 100 complete control)
# In short: as §1
# [3] = test system: galium (catchweed bedstraw, Galium aparine); test: Test A postemergence, galium; conditions: visual injury, 0 to 100 scale (0 no effect, 100 complete control), approximately 10 days
# In short: as §1
# [4] = test system: foxtail, giant (Setaria faberii); test: Test A preemergence, giant foxtail; conditions: 0 to 100 scale (0 no effect, 100 complete control)
# In short: as §1
# corn (Zea mays) = test: Test A postemergence, corn; conditions: visual injury, 0 to 100 scale (0 no effect, 100 complete control), approximately 10 days
# In short: as §1
# kochia (Kochia scoparia) [5] = test: Test A postemergence, kochia; conditions: visual injury, 0 to 100 scale (0 no effect, 100 complete control), approximately 10 days
# In short: as §1
# kochia (Kochia scoparia) [6] = test: Test A preemergence, kochia; conditions: 0 to 100 scale (0 no effect, 100 complete control)
# In short: as §1
# [7] = test system: ragweed (common ragweed, Ambrosia elatior); test: Test A preemergence, ragweed; conditions: 0 to 100 scale (0 no effect, 100 complete control)
# In short: as §1
# [8] = test system: barnyardgrass (Echinochloa crus-galli); test: Test B flooded paddy test, barnyardgrass; conditions: applied to paddy water, visual rating after 13 to 15 days, scale 0 (no effect) to 100 (complete control)
# Source text: (§2) At time of treatment, test pots were flooded to 3 cm above the soil surface, treated by application of test compounds directly to the paddy water, and then maintained at that water depth for the duration of the test. Treated plants and controls were maintained in a greenhouse for 13 to 15 days, after which time all species were compared to controls and visually evaluated. […] A dash (-) response means no test result.
# [9] = test system: foxtail, giant (Setaria faberii); test: Test A postemergence, giant foxtail; conditions: visual injury, 0 to 100 scale (0 no effect, 100 complete control), approximately 10 days
# In short: as §1
# [10] = test system: sedge, umbrella (small-flower umbrella sedge, Cyperus difformis); test: Test B flooded paddy test, umbrella sedge; conditions: applied to paddy water, visual rating after 13 to 15 days, scale 0 (no effect) to 100 (complete control)
# Source text: as §2
# [11] = test system: pigweed (Amaranthus retroflexus); test: Test A preemergence, pigweed; conditions: 0 to 100 scale (0 no effect, 100 complete control)
# In short: as §1
# [12] = test system: barnyardgrass (Echinochloa crus-galli); test: Test A postemergence, barnyardgrass; conditions: visual injury, 0 to 100 scale (0 no effect, 100 complete control), approximately 10 days
# In short: as §1
# rice (Oryza sativa) = test: Test B flooded paddy test, rice; conditions: applied to paddy water, visual rating after 13 to 15 days, scale 0 (no effect) to 100 (complete control)
# Source text: as §2
# [13] = test system: wheat (Triticum aestivum); test: Test A postemergence, wheat; conditions: visual injury, 0 to 100 scale (0 no effect, 100 complete control), approximately 10 days
# In short: as §1
# [14] = test system: ryegrass, Italian (Lolium multiflorum); test: Test A postemergence, Italian ryegrass; conditions: visual injury, 0 to 100 scale (0 no effect, 100 complete control), approximately 10 days
# In short: as §1
# [15] = test system: pigweed (Amaranthus retroflexus); test: Test A postemergence, pigweed; conditions: visual injury, 0 to 100 scale (0 no effect, 100 complete control), approximately 10 days
# In short: as §1
# [16] = test system: ryegrass, Italian (Lolium multiflorum); test: Test A preemergence, Italian ryegrass; conditions: 0 to 100 scale (0 no effect, 100 complete control)
# In short: as §1
# [17] = test system: ducksalad (Heteranthera limosa); test: Test B flooded paddy test, ducksalad; conditions: applied to paddy water, visual rating after 13 to 15 days, scale 0 (no effect) to 100 (complete control)
# Source text: as §2
# [18] = test system: ragweed (common ragweed, Ambrosia elatior); test: Test A postemergence, ragweed; conditions: visual injury, 0 to 100 scale (0 no effect, 100 complete control), approximately 10 days
# In short: as §1
SMILES,"Plant response rating, Blackgrass ([1]; 125 g ai/ha)","Plant response rating, Blackgrass ([1]; 500 g ai/ha)","Plant response rating, Barnyardgrass ([2]; 125 g ai/ha)","Plant response rating, Barnyardgrass ([2]; 500 g ai/ha)","Plant response rating, Galium ([3]; 125 g ai/ha)","Plant response rating, Galium ([3]; 500 g ai/ha)","Plant response rating, Foxtail, Giant ([4]; 125 g ai/ha)","Plant response rating, Foxtail, Giant ([4]; 500 g ai/ha)","Plant response rating, Corn (corn (Zea mays); 125 g ai/ha)","Plant response rating, Corn (corn (Zea mays); 500 g ai/ha)","Plant response rating, Kochia (kochia (Kochia scoparia) [6]; 125 g ai/ha)","Plant response rating, Kochia (kochia (Kochia scoparia) [6]; 500 g ai/ha)","Plant response rating, Ragweed ([7]; 125 g ai/ha)","Plant response rating, Ragweed ([7]; 500 g ai/ha)","Plant response rating, Foxtail, Giant ([9]; 125 g ai/ha)","Plant response rating, Foxtail, Giant ([9]; 500 g ai/ha)","Plant response rating, Pigweed ([11]; 125 g ai/ha)","Plant response rating, Pigweed ([11]; 500 g ai/ha)","Plant response rating, Barnyardgrass ([12]; 125 g ai/ha)","Plant response rating, Barnyardgrass ([12]; 500 g ai/ha)",further results
O=C1NCC(c2cccc(OCC3CC3)c2)C1C(=O)Nc1ccccc1F (centres unmarked) [Compound 11],0,40,60,90,0,30,80,90,0,20,0,40,0,0,50,90,0,30,50,90,"Plant response rating, Kochia (kochia (Kochia scoparia) [5]; 125 g ai/ha): 0; Plant response rating, Kochia (kochia (Kochia scoparia) [5]; 500 g ai/ha): 0; Plant response rating, Barnyardgrass (Flood) ([8]; 250 g ai/ha): 0; Plant response rating, Sedge, Umbrella (Flood) ([10]; 250 g ai/ha): 0; Plant response rating, Rice (Flood) (rice (Oryza sativa); 250 g ai/ha): 0; Plant response rating, Wheat ([13]; 125 g ai/ha): 0; Plant response rating, Wheat ([13]; 500 g ai/ha): 20; Plant response rating, Ryegrass, Italian ([14]; 125 g ai/ha): 0; Plant response rating, Ryegrass, Italian ([14]; 500 g ai/ha): 20; Plant response rating, Pigweed ([15]; 125 g ai/ha): 0; Plant response rating, Pigweed ([15]; 500 g ai/ha): 20; Plant response rating, Ryegrass, Italian ([16]; 125 g ai/ha): 0; Plant response rating, Ryegrass, Italian ([16]; 500 g ai/ha): 20; Plant response rating, Ducksalad (Flood) ([17]; 250 g ai/ha): 0; Plant response rating, Ragweed ([18]; 125 g ai/ha): 30; Plant response rating, Ragweed ([18]; 500 g ai/ha): 40"
O=C1NCC(c2cccc(Cn3ccc(C(F)(F)F)n3)c2)C1C(=O)Nc1ccccc1F (centres unmarked) [Compound 23],0,0,0,20,0,0,20,50,0,0,0,20,0,0,0,20,0,0,0,30,"Plant response rating, Kochia (kochia (Kochia scoparia) [5]; 125 g ai/ha): 0; Plant response rating, Kochia (kochia (Kochia scoparia) [5]; 500 g ai/ha): 0; Plant response rating, Barnyardgrass (Flood) ([8]; 500 g ai/ha): 0; Plant response rating, Sedge, Umbrella (Flood) ([10]; 500 g ai/ha): 0; Plant response rating, Rice (Flood) (rice (Oryza sativa); 500 g ai/ha): 0; Plant response rating, Wheat ([13]; 125 g ai/ha): 0; Plant response rating, Wheat ([13]; 500 g ai/ha): 0; Plant response rating, Ryegrass, Italian ([14]; 125 g ai/ha): 0; Plant response rating, Ryegrass, Italian ([14]; 500 g ai/ha): 0; Plant response rating, Pigweed ([15]; 125 g ai/ha): 0; Plant response rating, Pigweed ([15]; 500 g ai/ha): 0; Plant response rating, Ryegrass, Italian ([16]; 125 g ai/ha): 0; Plant response rating, Ryegrass, Italian ([16]; 500 g ai/ha): 0; Plant response rating, Ducksalad (Flood) ([17]; 500 g ai/ha): 0; Plant response rating, Ragweed ([18]; 125 g ai/ha): 0; Plant response rating, Ragweed ([18]; 500 g ai/ha): 0"
"CN1CC(c2cccc(Sc3ccccc3)c2)C(C(=O)Nc2ccccc2F)C1=O (single isomer, unassigned) [Compound 50]",0,0,0,40,0,40,90,90,0,20,0,30,0,30,50,70,20,20,0,30,"Plant response rating, Barnyardgrass (Flood) ([8]; 250 g ai/ha): 0; Plant response rating, Sedge, Umbrella (Flood) ([10]; 250 g ai/ha): 0; Plant response rating, Rice (Flood) (rice (Oryza sativa); 250 g ai/ha): 0; Plant response rating, Wheat ([13]; 125 g ai/ha): 0; Plant response rating, Wheat ([13]; 500 g ai/ha): 0; Plant response rating, Ryegrass, Italian ([14]; 125 g ai/ha): 0; Plant response rating, Ryegrass, Italian ([14]; 500 g ai/ha): 0; Plant response rating, Pigweed ([15]; 125 g ai/ha): 0; Plant response rating, Pigweed ([15]; 500 g ai/ha): 30; Plant response rating, Ryegrass, Italian ([16]; 125 g ai/ha): 0; Plant response rating, Ryegrass, Italian ([16]; 500 g ai/ha): 0; Plant response rating, Ducksalad (Flood) ([17]; 250 g ai/ha): 70; Plant response rating, Ragweed ([18]; 125 g ai/ha): 0; Plant response rating, Ragweed ([18]; 500 g ai/ha): 0"
"O=C1NCC(c2cccc(Oc3ccc(F)cn3)c2)C1C(=O)Nc1cccc(F)c1F (single isomer, unassigned) [Compound 52]",30,40,70,90,40,60,90,90,50,70,70,80,40,80,70,90,60,70,70,80,"Plant response rating, Barnyardgrass (Flood) ([8]; 250 g ai/ha): 40; Plant response rating, Sedge, Umbrella (Flood) ([10]; 250 g ai/ha): 0; Plant response rating, Rice (Flood) (rice (Oryza sativa); 250 g ai/ha): 0; Plant response rating, Wheat ([13]; 125 g ai/ha): 0; Plant response rating, Wheat ([13]; 500 g ai/ha): 40; Plant response rating, Ryegrass, Italian ([14]; 125 g ai/ha): 30; Plant response rating, Ryegrass, Italian ([14]; 500 g ai/ha): 60; Plant response rating, Pigweed ([15]; 125 g ai/ha): 40; Plant response rating, Pigweed ([15]; 500 g ai/ha): 60; Plant response rating, Ryegrass, Italian ([16]; 125 g ai/ha): 30; Plant response rating, Ryegrass, Italian ([16]; 500 g ai/ha): 40; Plant response rating, Ducksalad (Flood) ([17]; 250 g ai/ha): 100; Plant response rating, Ragweed ([18]; 125 g ai/ha): 0; Plant response rating, Ragweed ([18]; 500 g ai/ha): 60"
